# Source: ChEMBL document CHEMBL1201861, “Genomics of Drug Sensitity in Cancer screening data, Wellcome Trust Sanger Institute”
# Experiments:
# Assay in all cases: cells
# COLO-800 = assay type: functional, cell-based, Homo sapiens; details: Homo sapiens, COLO-800;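 also: growth inhibition of COLO-800 cells, read out with a cell viability assay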
# Description: SANGER: Inhibition of human COLO-800 cell growth in a cell viability assay.
# COLO-824 = assay type: functional, cell-based, Homo sapiens; details: Homo sapiens, COLO-824
# Description: SANGER: Inhibition of human COLO-824 cell growth in a cell viability assay.
# CTB-1 = assay type: functional, cell-based, Homo sapiens; details: Homo sapiens, CTB-1
# Description: SANGER: Inhibition of human CTB-1 cell growth in a cell viability assay.
# CW-2 = assay type: functional, cell-based, Homo sapiens; details: Homo sapiens, CW-2;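 also: growth inhibition of CW-2 cells, read out by a cell viability assay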
# Description: SANGER: Inhibition of human CW-2 cell growth in a cell viability assay.
# DB = assay type: functional, cell-based, Homo sapiens; details: Homo sapiens, DB
# Description: SANGER: Inhibition of human DB cell growth in a cell viability assay.
# DMS-114 = assay type: functional, cell-based, Homo sapiens; details: Homo sapiens, DMS-114
# DOHH-2 = assay type: functional, cell-based, Homo sapiens; details: Homo sapiens, DOHH-2;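 also: growth inhibition of human DOHH-2 cells, read out with a cell viability assay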
# Description: SANGER: Inhibition of human DOHH-2 cell growth in a cell viability assay.
# EM-2 = assay type: functional, cell-based, Homo sapiens; details: Homo sapiens, EM-2;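 also: growth inhibition of EM-2 cells, read out with a cell viability assay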
# Description: SANGER: Inhibition of human EM-2 cell growth in a cell viability assay.
# ES7 = assay type: functional, cell-based, Homo sapiens; details: Homo sapiens, ES7;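 also: growth inhibition of cultured human ES7 cells, read out as cell viability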
# Description: SANGER: Inhibition of human ES7 cell growth in a cell viability assay.
# EW-1 = assay type: functional, cell-based, Homo sapiens; details: Homo sapiens, EW-1;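 also: growth inhibition of the human EW-1 cell line, read out by a cell viability assay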
# Description: SANGER: Inhibition of human EW-1 cell growth in a cell viability assay.
# GI-1 = assay type: functional, cell-based, Homo sapiens; details: Homo sapiens, GI-1;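 also: growth inhibition of human GI-1 cells, measured with a cell viability readout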
# Description: SANGER: Inhibition of human GI-1 cell growth in a cell viability assay.
# GOTO = assay type: functional, cell-based, Homo sapiens; details: Homo sapiens, GOTO;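 also: growth inhibition of GOTO cells, read out by a cell viability assay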
# Description: SANGER: Inhibition of human GOTO cell growth in a cell viability assay.
# GR-ST = assay type: functional, cell-based, Homo sapiens; details: Homo sapiens, GR-ST
# Description: SANGER: Inhibition of human GR-ST cell growth in a cell viability assay.
# HT = assay type: functional, cell-based, Homo sapiens; details: Homo sapiens, HT
# Description: SANGER: Inhibition of human HT cell growth in a cell viability assay.
# IST-MES1 = assay type: functional, cell-based, Homo sapiens; details: Homo sapiens, IST-MES1;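 also: growth inhibition of IST-MES1 cells, measured with a cell viability assay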
# Description: SANGER: Inhibition of human IST-MES1 cell growth in a cell viability assay.
# K5 = assay type: functional, cell-based, Homo sapiens; details: Homo sapiens, K5
# Description: SANGER: Inhibition of human K5 cell growth in a cell viability assay.
# KINGS-1 = assay type: functional, cell-based, Homo sapiens; details: Homo sapiens, KINGS-1;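 also: cell viability assay measuring suppression of KINGS-1 cell growth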
# Description: SANGER: Inhibition of human KINGS-1 cell growth in a cell viability assay.
# KNS-81-FD = assay type: functional, cell-based, Homo sapiens; details: Homo sapiens, KNS-81-FD;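 also: growth inhibition of KNS-81-FD cells, read out with a cell viability assay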
# Description: SANGER: Inhibition of human KNS-81-FD cell growth in a cell viability assay.
# LB2518-MEL = assay type: functional, cell-based; details: Homo sapiens;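 also: growth inhibition of human LB2518-MEL cells, measured with a cell viability assay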
# Description: SANGER: Inhibition of human LB2518-MEL cell growth in a cell viability assay.
# ML-2 = assay type: functional, cell-based, Homo sapiens; details: Homo sapiens, ML-2;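 also: growth inhibition of ML-2 cells, measured with a cell viability readout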
# Description: SANGER: Inhibition of human ML-2 cell growth in a cell viability assay.
# MOLT-16 = assay type: functional, cell-based, Homo sapiens; details: Homo sapiens, MOLT-16;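 also: growth inhibition of human MOLT-16 cells, read out with a cell viability assay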
# Description: SANGER: Inhibition of human MOLT-16 cell growth in a cell viability assay.
# MSTO-211H = assay type: functional, cell-based, Homo sapiens; details: Homo sapiens, MSTO-211H
# Description: SANGER: Inhibition of human MSTO-211H cell growth in a cell viability assay.
# MZ1-PC = assay type: functional, cell-based, Homo sapiens; details: Homo sapiens, MZ1-PC;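 also: cell viability assay measuring growth inhibition of human MZ1-PC cells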
# Description: SANGER: Inhibition of human MZ1-PC cell growth in a cell viability assay.
# MZ2-MEL = assay type: functional, cell-based, Homo sapiens; details: Homo sapiens, MZ2-MEL;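 also: growth inhibition of MZ2-MEL cells read out with a cell viability assay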
# Description: SANGER: Inhibition of human MZ2-MEL cell growth in a cell viability assay.
# NB6 = assay type: functional, cell-based, Homo sapiens; details: Homo sapiens, NB6
# Description: SANGER: Inhibition of human NB6 cell growth in a cell viability assay.
# NB69 = assay type: functional, cell-based, Homo sapiens; details: Homo sapiens, NB69;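 also: growth inhibition of NB69 cells, determined by a cell viability assay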
# Description: SANGER: Inhibition of human NB69 cell growth in a cell viability assay.
# NCI-H1155 = assay type: functional, cell-based, Homo sapiens; details: Homo sapiens, NCI-H1155;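 also: cell growth inhibition measured by a viability assay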
# Description: SANGER: Inhibition of human NCI-H1155 cell growth in a cell viability assay.
# NCI-H1299 = assay type: functional, cell-based; details: Homo sapiens;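 also: growth inhibition of human NCI-H1299 cells, read out by a cell viability assay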
# Description: SANGER: Inhibition of human NCI-H1299 cell growth in a cell viability assay.
# NCI-H1581 = assay type: functional, cell-based, Homo sapiens; details: Homo sapiens, NCI-H1581;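 also: cell growth inhibition read out by a viability assay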
# Description: SANGER: Inhibition of human NCI-H1581 cell growth in a cell viability assay.
# NCI-H1838 = assay type: functional, cell-based, Homo sapiens; details: Homo sapiens, NCI-H1838;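 also: growth inhibition of NCI-H1838 cells, determined with a cell viability readout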
# Description: SANGER: Inhibition of human NCI-H1838 cell growth in a cell viability assay.
# NH-12 = assay type: functional, cell-based, Homo sapiens; details: Homo sapiens, NH-12;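 also: growth inhibition of NH-12 cells, read out with a cell viability assay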
# Description: SANGER: Inhibition of human NH-12 cell growth in a cell viability assay.
# NMC-G1 = assay type: functional, cell-based, Homo sapiens; details: Homo sapiens, NMC-G1;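 also: growth inhibition of the NMC-G1 cell line, measured with a cell viability read-out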
# Description: SANGER: Inhibition of human NMC-G1 cell growth in a cell viability assay.
# NOS-1 = assay type: functional, cell-based, Homo sapiens; details: Homo sapiens, NOS-1;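 also: growth inhibition of the human NOS-1 cell line, read out with a cell viability assay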
# Description: SANGER: Inhibition of human NOS-1 cell growth in a cell viability assay.
# NTERA-2-cl-D1 = assay type: functional, cell-based, Homo sapiens; details: Homo sapiens, NTERA-2-cl-D1;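 also: inhibition of cell growth, measured with a cell viability assay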
# Description: SANGER: Inhibition of human NTERA-S-cl-D1 cell growth in a cell viability assay.
# OCI-AML2 = assay type: functional, cell-based, Homo sapiens; details: Homo sapiens, OCI-AML2;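 also: growth inhibition of OCI-AML2 cells, read out with a cell viability assay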
# Description: SANGER: Inhibition of human OCI-AML2 cell growth in a cell viability assay.
# ONS-76 = assay type: functional, cell-based, Homo sapiens; details: Homo sapiens, ONS-76;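 also: growth inhibition of human ONS-76 cells, read out with a cell viability assay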
# Description: SANGER: Inhibition of human ONS-76 cell growth in a cell viability assay.
# RH-1 = assay type: functional, cell-based, Homo sapiens; details: Homo sapiens, RH-1;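 also: growth inhibition of human RH-1 cells, read out with a cell viability assay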
# Description: SANGER: Inhibition of human RH-1 cell growth in a cell viability assay.
# Ramos-2G6-4C10 = assay type: functional, cell-based, Homo sapiens; details: Homo sapiens, Ramos-2G6-4C10;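 also: growth inhibition of the cell line, measured by a cell viability read-out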
# Description: SANGER: Inhibition of human Ramos-2G6-4C10 cell growth in a cell viability assay.
# SBC-1 = assay type: functional, cell-based, Homo sapiens; details: Homo sapiens, SBC-1;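 also: cell viability assay measuring growth inhibition of the SBC-1 cell line, IC50 being the concentration that halves growth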
# Description: SANGER: Inhibition of human SBC-1 cell growth in a cell viability assay.
# SF-268 = assay type: functional, cell-based, Homo sapiens; details: Homo sapiens, SF-268;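 also: growth inhibition of SF-268 cells determined with a cell viability assay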
# Description: SANGER: Inhibition of human SF268 cell growth in a cell viability assay.
# SK-NEP-1 = assay type: functional, cell-based, Homo sapiens; details: Homo sapiens, SK-NEP-1;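 also: growth inhibition of human SK-NEP-1 cells, read out by a cell viability assay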
# Description: SANGER: Inhibition of human SK-NEP-1 cell growth in a cell viability assay.
# A101D = assay type: functional, cell-based, Homo sapiens; details: Homo sapiens, A101D;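 also: growth inhibition of the cell line, measured with a viability assay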
# Description: SANGER: Inhibition of human A101D cell growth in a cell viability assay.
# BV-173 = assay type: functional, cell-based, Homo sapiens; details: Homo sapiens, BV-173
# Description: SANGER: Inhibition of human BV-173 cell growth in a cell viability assay.
# TE-10 = assay type: functional, cell-based, Homo sapiens; details: Homo sapiens, TE-10;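 also: growth inhibition of TE-10 cells, measured by a cell viability assay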
# Description: SANGER: Inhibition of human TE-10 cell growth in a cell viability assay.
# TE-6 = assay type: functional, cell-based, Homo sapiens; details: Homo sapiens, TE-6;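 also: growth inhibition of TE-6 cells, read out with a cell viability assay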
# Description: SANGER: Inhibition of human TE-6 cell growth in a cell viability assay.
# TE-9 = assay type: functional, cell-based, Homo sapiens; details: Homo sapiens, TE-9;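 also: cell growth inhibition, measured with a cell viability readout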
# Description: SANGER: Inhibition of human TE-9 cell growth in a cell viability assay.
# UACC-257 = assay type: functional, cell-based, Homo sapiens; details: Homo sapiens, UACC-257
# Description: SANGER: Inhibition of human UACC-257 cell growth in a cell viability assay.
# no-11 = assay type: functional, cell-based, Homo sapiens; details: Homo sapiens;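 also: growth inhibition of human NO-11 cells, read out with a cell viability assay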
# Description: SANGER: Inhibition of human no-11 cell growth in a cell viability assay.
# COLO-668 = assay type: functional, cell-based, Homo sapiens; details: Homo sapiens, COLO-668
# Description: SANGER: Inhibition of human COLO-668 cell growth in a cell viability assay.
smiles,measurement,setting,value
O=C1NC(=O)c2c1c(-c1ccccc1Cl)cc1[nH]c3ccc(O)cc3c21,IC50,COLO-800,> 2000 nM
same,IC50,COLO-824,> 2000 nM
same,IC50,CTB-1,242 nM
same,IC50,CW-2,> 2000 nM
same,IC50,DB,1300 nM
same,IC50,DMS-114,> 2000 nM
same,IC50,DOHH-2,> 2000 nM
same,IC50,EM-2,1330 nM
same,IC50,ES7,> 2000 nM
same,IC50,EW-1,338 nM
same,IC50,GI-1,> 2000 nM
same,IC50,GOTO,666 nM
same,IC50,GR-ST,975 nM
same,IC50,HT,> 2000 nM
same,IC50,IST-MES1,> 2000 nM
same,IC50,K5,> 2000 nM
same,IC50,KINGS-1,> 2000 nM
same,IC50,KNS-81-FD,> 2000 nM
same,IC50,LB2518-MEL,> 2000 nM
same,IC50,ML-2,> 2000 nM
same,IC50,MOLT-16,1420 nM
same,IC50,MSTO-211H,> 2000 nM
same,IC50,MZ1-PC,> 2000 nM
same,IC50,MZ2-MEL,> 2000 nM
same,IC50,NB6,> 2000 nM
same,IC50,NB69,> 2000 nM
same,IC50,NCI-H1155,> 2000 nM
same,IC50,NCI-H1299,> 2000 nM
same,IC50,NCI-H1581,> 2000 nM
same,IC50,NCI-H1838,> 2000 nM
same,IC50,NH-12,> 2000 nM
same,IC50,NMC-G1,> 2000 nM
same,IC50,NOS-1,> 2000 nM
same,IC50,NTERA-2-cl-D1,> 2000 nM
same,IC50,OCI-AML2,> 2000 nM
same,IC50,ONS-76,> 2000 nM
same,IC50,RH-1,> 2000 nM
same,IC50,Ramos-2G6-4C10,610 nM
same,IC50,SBC-1,> 2000 nM
same,IC50,SF-268,> 2000 nM
same,IC50,SK-NEP-1,> 2000 nM
same,IC50,A101D,> 2000 nM
same,IC50,BV-173,434 nM
same,IC50,TE-10,> 2000 nM
same,IC50,TE-6,> 2000 nM
same,IC50,TE-9,> 2000 nM
same,IC50,UACC-257,> 2000 nM
same,IC50,no-11,> 2000 nM
same,IC50,COLO-668,> 2000 nM
NC(=O)Nc1cc(-c2cccc(F)c2)sc1C(=O)N[C@H]1CCCNC1 [AZD-7762],IC50,COLO-800,603 nM
same,IC50,COLO-824,> 2000 nM
same,IC50,CTB-1,133 nM
same,IC50,CW-2,> 2000 nM
same,IC50,DB,1700 nM
same,IC50,DMS-114,> 2000 nM
same,IC50,DOHH-2,131 nM
same,IC50,EM-2,99 nM
same,IC50,ES7,160 nM
same,IC50,EW-1,189 nM
same,IC50,GI-1,196 nM
same,IC50,GOTO,31.2 nM
same,IC50,GR-ST,178 nM
same,IC50,HT,1870 nM
same,IC50,IST-MES1,> 2000 nM
same,IC50,K5,941 nM
same,IC50,KINGS-1,1420 nM
same,IC50,KNS-81-FD,> 2000 nM
same,IC50,LB2518-MEL,> 2000 nM
same,IC50,ML-2,125 nM
same,IC50,MOLT-16,88.1 nM
same,IC50,MSTO-211H,299 nM
same,IC50,MZ1-PC,> 2000 nM
same,IC50,MZ2-MEL,> 2000 nM
same,IC50,NB6,985 nM
same,IC50,NB69,705 nM
same,IC50,NCI-H1155,739 nM
same,IC50,NCI-H1299,556 nM
same,IC50,NCI-H1581,> 2000 nM
same,IC50,NCI-H1838,> 2000 nM
same,IC50,NH-12,357 nM
same,IC50,NMC-G1,986 nM
same,IC50,NOS-1,150 nM
same,IC50,NTERA-2-cl-D1,> 2000 nM
same,IC50,OCI-AML2,1270 nM
same,IC50,ONS-76,62 nM
same,IC50,RH-1,227 nM
same,IC50,Ramos-2G6-4C10,148 nM
same,IC50,SBC-1,> 2000 nM
same,IC50,SF-268,881 nM
same,IC50,SK-NEP-1,464 nM
same,IC50,A101D,1700 nM
same,IC50,BV-173,346 nM
same,IC50,TE-10,910 nM
same,IC50,TE-6,> 2000 nM
same,IC50,TE-9,1630 nM
same,IC50,UACC-257,> 2000 nM
same,IC50,no-11,1490 nM
same,IC50,COLO-668,> 2000 nM
